Source: PMC7278688, “Anti-Hypertensive Activity of Novel Peptides Identified from Olive Flounder (Paralichthys olivaceus) Surimi” (Foods, 2020)
“Also recorded” adds a separate entry of the source. Where two headings read alike, the source gives them in different places. Where a SMILES comes first, the peptide text is derived from it. Where no end group is shown, it is not given here.

What was measured:
[1] = system: Akt (protein kinase B) in HUVECs; assay: Phosphorylation of Akt in HUVECs, Western blot; assay type: cell-based, human; conditions: for phosphorylation level of Akt (in words): 25, 50, and 100 μg/mL, HUVECs pretreated 24 h, triplicate
Protocol: (§1) HUVECs were seeded on 6-well plates at a concentration of 1 × 10* cells/mL. Sixteen hours after seeding, the cells were pretreated with the peptides for 24 h. The experimental procedure was completed as previously described. The primary antibodies (p-Akt, p-eNOS, and β-actin) were used at 1:1000 dilutions and incubated with the membrane at 4 °C overnight. The secondary antibodies were used at 1:3000 dilutions. All antibodies were purchased from Cell Signaling Technology (Beverly, MA, USA).

[2] = system: spontaneously hypertensive rats (SHRs); assay: Systolic blood pressure after oral administration in SHRs (tail-cuff); assay type: in vivo; conditions: for change in blood pressure, overall result (in words): oral administration, 50 mg/kg, SHRs, time not stated; for systolic blood pressure (SBP): 3 h after oral administration, 50 mg/kg in 1 mL saline, 6 SHRs per group, saline group 200–210 mmHg, mean ± SD
Protocol: SHRs with tail SBP over 180 mmHg were obtained from SLC Inc. (Shizuoka, Japan). Seven-week-old male, specific pathogen-free SHRs of approximately 300 g body weight were raised under room temperature (25 °C) with a 12-h light/dark cycle. The rats were fed a normal diet and tap water, with ad libitum feeding. All animals were administrated the dissolved samples in saline solution. The rats were divided into five groups comprised of a control group (saline); a group treated with peptide from sardine (positive control); and groups treated with any of three peptides (IVDR, WYK, and VASVI). Each was orally administered to 6 SHRs at a dose of 50 mg/kg which was dissolved in 1 mL saline. SBP was measured by a tail-cuff method before administration and at 3, 6, and 9 h post-administration using a CODA™ blood pressure monitor (Kent Scientific Corp., Torrington, CT, USA). The animal experiment received approval from the Animal Care and Use Committee of the Jeju National University (Approval NO. 2017-0017) and all experiments were performed in accordance with the guidelines.

[3] = system: human umbilical vein endothelial cells (HUVECs); assay: NO production in HUVECs (Griess reagent); assay type: cell-based; conditions: 3 h, 540 nm, compared with control
Protocol: Cultures of human umbilical vein endothelial cells (HUVEC, ATCC* CRL-1730) were incubated at 37 °C in a cell incubator supplied with 5% CO2. Cell media compositions were based on those used in a previous study. Furthermore, production of NO was analyzed using Griess reagent (1% sulphanilamide and 0.1% naphthylethylenediamine dihydrochloride in 2.5% phosphoric acid), according to the method described by Ko et al.. HUVEC were seeded in 96-well plates at 1 × 10* cells/mL; after pre-incubation (24 h) the cells were treated without or with three concentrations of peptides (25, 50, and 100 μg/mL) for 3 h. Then the cells were treated with Griess reagent and incubated at 37 °C for 10 min in the dark. The […] was quantified using a microplate reader at 540 nm.

[4] = molecular target: T1, Angiotensin I-converting enzyme (ACE) (Homo sapiens, UniProt P12821); assay: ACE inhibitory activity assay (Dojindo ACE kit-WST); assay type: biochemical; design: purchased Dojindo (Kumamoto, Japan); conditions: for IC50: mean ± SD of triplicate experiments, read-out: IC50 value of ACE inhibition
Protocol: The inhibitory activity of ACE was measured using the Dojindo ACE kit-WST (Kumamoto, Japan) in accordance with the manufacturer’s protocols. The principles of the kit have been described in a previous study.
The inhibitory ratios were calculated as follows:Inhibition rate (%) = [(Control − Sample)/(Control − Blank)] × 100(1) where IC50 is the concentration of inhibitor required for 50% inhibition of an enzymatic activity.
Target sequence in this assay (P12821 30-1306, species assumed): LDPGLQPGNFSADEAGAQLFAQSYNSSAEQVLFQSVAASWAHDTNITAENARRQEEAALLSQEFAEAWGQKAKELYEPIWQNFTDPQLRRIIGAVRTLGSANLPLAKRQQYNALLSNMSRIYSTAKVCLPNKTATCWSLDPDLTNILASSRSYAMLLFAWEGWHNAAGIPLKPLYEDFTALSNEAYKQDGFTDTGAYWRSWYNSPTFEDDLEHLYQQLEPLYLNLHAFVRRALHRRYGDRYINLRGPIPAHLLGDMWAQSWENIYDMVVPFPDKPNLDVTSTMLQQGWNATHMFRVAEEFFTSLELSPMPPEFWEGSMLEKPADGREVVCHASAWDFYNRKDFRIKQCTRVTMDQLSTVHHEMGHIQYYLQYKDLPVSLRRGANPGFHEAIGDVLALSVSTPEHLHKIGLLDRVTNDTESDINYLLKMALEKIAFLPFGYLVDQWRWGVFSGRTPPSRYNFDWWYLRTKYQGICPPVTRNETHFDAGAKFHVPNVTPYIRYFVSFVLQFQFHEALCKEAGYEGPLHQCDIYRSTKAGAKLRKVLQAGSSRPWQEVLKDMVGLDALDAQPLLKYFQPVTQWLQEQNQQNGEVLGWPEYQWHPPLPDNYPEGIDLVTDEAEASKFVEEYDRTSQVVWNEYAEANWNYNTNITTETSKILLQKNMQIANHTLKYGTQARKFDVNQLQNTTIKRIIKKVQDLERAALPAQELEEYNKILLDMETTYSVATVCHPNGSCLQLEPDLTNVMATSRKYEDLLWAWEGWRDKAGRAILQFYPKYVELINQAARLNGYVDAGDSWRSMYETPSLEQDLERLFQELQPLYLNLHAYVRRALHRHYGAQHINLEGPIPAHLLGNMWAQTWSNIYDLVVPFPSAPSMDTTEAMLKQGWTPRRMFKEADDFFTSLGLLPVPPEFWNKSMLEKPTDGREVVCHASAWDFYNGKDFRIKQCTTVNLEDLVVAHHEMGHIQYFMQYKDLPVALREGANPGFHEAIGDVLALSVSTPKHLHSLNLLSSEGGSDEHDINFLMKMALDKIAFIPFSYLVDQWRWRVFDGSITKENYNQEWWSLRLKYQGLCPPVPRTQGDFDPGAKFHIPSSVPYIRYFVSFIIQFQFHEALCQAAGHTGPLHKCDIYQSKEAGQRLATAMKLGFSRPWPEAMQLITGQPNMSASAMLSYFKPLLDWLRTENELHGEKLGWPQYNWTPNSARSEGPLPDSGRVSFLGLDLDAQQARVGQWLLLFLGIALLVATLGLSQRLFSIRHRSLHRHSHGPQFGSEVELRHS

[5] = system: endothelial nitric oxide synthase (eNOS) in HUVECs; assay: Phosphorylation of eNOS in HUVECs, Western blot; assay type: cell-based, human; conditions: positive control or overall result, concentration not given
Protocol: as §1

[6] = molecular target: T1, Angiotensin I-converting enzyme (ACE); design: purchased Dojindo (Kumamoto, Japan); conditions: cited from earlier work
From the text: Table 1 IC50 values of ACE inhibitory peptides derived from Paralichthys olivaceus surimi. | column: IC50 Value (µM) || Several studies have investigated the relationship between protein intake and blood pressure. […] Our previous study confirmed that surimi manufactured from olive flounder could be used as a beneficial ingredient in dietary protein due to its antihypertensive effect. The study also identified novel peptides derived from surimi. ACE inhibition plays a major physiological role in regulating blood pressure. The current study investigated the ACE inhibition activity of the novel peptides ...
Target sequence in this assay (P12821 30-1306, species assumed): as above

[7] = molecular target: T1, Angiotensin I-converting enzyme (ACE)
Target sequence in this assay (P12821 30-1256): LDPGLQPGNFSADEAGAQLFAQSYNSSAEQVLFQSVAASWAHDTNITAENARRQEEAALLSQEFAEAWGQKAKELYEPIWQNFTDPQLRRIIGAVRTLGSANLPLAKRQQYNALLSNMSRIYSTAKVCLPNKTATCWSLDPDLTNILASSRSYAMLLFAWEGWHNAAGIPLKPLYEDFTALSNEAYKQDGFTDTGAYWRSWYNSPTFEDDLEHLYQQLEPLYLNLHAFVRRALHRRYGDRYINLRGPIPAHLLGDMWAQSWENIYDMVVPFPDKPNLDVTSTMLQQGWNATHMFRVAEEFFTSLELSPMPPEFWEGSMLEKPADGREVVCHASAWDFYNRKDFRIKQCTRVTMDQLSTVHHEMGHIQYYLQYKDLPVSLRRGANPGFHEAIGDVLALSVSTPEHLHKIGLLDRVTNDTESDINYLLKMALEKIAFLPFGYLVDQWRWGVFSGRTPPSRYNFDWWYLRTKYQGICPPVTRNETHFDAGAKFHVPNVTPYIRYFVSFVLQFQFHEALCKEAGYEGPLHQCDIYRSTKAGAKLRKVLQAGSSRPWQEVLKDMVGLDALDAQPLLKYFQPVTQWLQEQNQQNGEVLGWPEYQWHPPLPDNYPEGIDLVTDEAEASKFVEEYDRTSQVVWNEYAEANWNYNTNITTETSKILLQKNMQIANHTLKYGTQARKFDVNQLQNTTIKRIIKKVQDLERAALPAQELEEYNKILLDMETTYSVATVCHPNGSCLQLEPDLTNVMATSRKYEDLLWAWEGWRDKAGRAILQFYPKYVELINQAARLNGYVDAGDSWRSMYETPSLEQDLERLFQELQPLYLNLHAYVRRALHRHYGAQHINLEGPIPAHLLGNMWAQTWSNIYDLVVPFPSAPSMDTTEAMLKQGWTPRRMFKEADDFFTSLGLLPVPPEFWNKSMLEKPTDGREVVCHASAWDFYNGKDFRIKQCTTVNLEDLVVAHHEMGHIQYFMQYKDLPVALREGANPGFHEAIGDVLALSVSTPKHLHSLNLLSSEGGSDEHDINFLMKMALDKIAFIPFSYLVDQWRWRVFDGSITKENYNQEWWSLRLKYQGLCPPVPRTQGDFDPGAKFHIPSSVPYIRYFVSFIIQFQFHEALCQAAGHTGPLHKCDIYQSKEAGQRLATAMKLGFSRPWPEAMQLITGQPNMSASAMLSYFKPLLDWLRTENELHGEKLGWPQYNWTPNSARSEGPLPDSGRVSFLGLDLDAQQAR

[8] = peptides at 25–100 μg/mL, means ± SD of triplicate
[9] = literature peptides for comparison, read-out: IC50 of ACE inhibitory peptides isolated from food proteins

## CC[C@H](C)[C@H](N)C(=O)N[C@H](C(=O)N[C@@H](CC(=O)O)C(=O)N[C@@H](CCCNC(=N)N)C(=O)O)C(C)C [IVDR, Isoleucine-Valine-Aspartic acid-Arginine] (H-IVDR-OH)
[1]
  phosphorylation level of Akt (in words): significantly increased
[2]
  change in blood pressure, overall result (in words): effective at decreasing SBP in SHRs
[3]; 100 μg/mL
  NO production in HUVECs (in words): increased the production of NO only slightly
[4]
  ACE inhibitory activity (in words): high Angiotensin I-converting Enzyme (ACE) inhibition activity; also recorded: high ACE inhibitory activity
  IC50: 46.9 ± 0.32 µM

## NCCCC[C@H](NC(=O)[C@H](Cc1ccc(O)cc1)NC(=O)[C@@H](N)Cc1c[nH]c2ccccc12)C(=O)O [WYK, Tryptophan-Tyrosine-Lysine] (H-Trp-Tyr-Lys-OH)
[1]
  phosphorylation level of Akt (in words): significantly increased
[2]
  systolic blood pressure (SBP): 173 ± 4 mmHg
  change in blood pressure, overall result (in words): effective at decreasing SBP in SHRs
[3]; [8]
  NO production in HUVECs (in words): significantly higher
[4]
  ACE inhibitory activity (in words): high Angiotensin I-converting Enzyme (ACE) inhibition activity; also recorded: high ACE inhibitory activity
  IC50: 33 ± 0.68 µM

## [Ca+2] [calcium, reference compound]
[1]; HUVECs, positive control or overall result, concentration not given
  phosphorylation of Akt (in words): profoundly increased
[5]
  phosphorylation of eNOS (in words): profoundly increased

## ALGPQFY [from stone fish]
[6]; [9]
  IC50: 12 µM

## ANSEVAQWR [from Trichiurus lepturus myosin]
[6]; [9]
  IC50: 89.6 µM

## Ala-Ser-Leu [from silkworm pupa]
[6]; [9]
  IC50: 102 µM

## Arg-Val-Cys-Leu-Pro (RVCLP) [from lizard fish]
[6]; [9]
  IC50: 175 µM

## EALVSQLTR [from Trichiurus lepturus myosin]
[6]; [9]
  IC50: 91.5 µM

## Phe-Gly-Als-Ser-Thr-Arg-Gly-Ala (FGASTRGA; printed 'Als' at position 3 read as a typo for Ala) [from Alaska pollock frame]
[6]; [9]
  IC50: 14.7 µM

## Trp-Tyr-Lys (WYK) (peptide)
[7]
  IC50 of inhibition of ACE enzymatic activity (Dojindo ACE kit-WST): 33 µM

## VASVI [VASVI, Valine-Alanine-Serine-Valine-Isoleucine]
[1]
  phosphorylation level of Akt (in words): significantly increased
[2]
  systolic blood pressure (SBP): 181 ± 2 mmHg
  change in blood pressure, overall result (in words): effective at decreasing SBP in SHRs
[3]; [8]
  NO production in HUVECs (in words): significantly higher
[4]
  ACE inhibitory activity (in words): high Angiotensin I-converting Enzyme (ACE) inhibition activity; also recorded: high ACE inhibitory activity
  IC50: 32.7 ± 1.32 µM

## Val-Tyr [Sardine peptide (Val-Tyr), reference compound]
[6]; determined by Matsufuji et al., read-out: IC50 value of ACE inhibition (sardine peptide)
  IC50: 26 µM
[2]
  systolic blood pressure (SBP): 184 ± 2 mmHg
  change in blood pressure, overall result (in words): declined considerably

B1: Ile-Val-Asp-Arg (IVDR) (peptide)
peptide: IVDR
[7]
  IC50 of inhibition of ACE enzymatic activity (Dojindo ACE kit-WST): 46.9 µM

B2: Val-Ala-Ser-Val-Ile (VASVI) (peptide)
peptide: VASVI
[7]
  IC50 of inhibition of ACE enzymatic activity (Dojindo ACE kit-WST): 32.7 µM
